Experimental data taken from article PMC5442318, “Hundreds of dual-stage antimalarial molecules discovered by a functional gametocyte screen” (Nature Communications, 2017).

Legend:
[1] = test system: P. falciparum stage V female gametocytes; test: P. falciparum female gametocyte activation assay (Pf FGAA), 24 h or 48 h preincubation, Pfs25 expression readout; format: cell-based, Plasmodium falciparum NF54; settings: mean; read-out: Gametocytes mean Pf FGAA IC50
Summary of the method: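 Female activation, triggered by xanthurenic acid and cooling, was scored by imaging Cy3-labelled anti-Pfs25 female gametes after 24 h at 26 °C. Beforehand, purified NF54 stage V gametocytes had been incubated with compound for either 24 h or 48 h (37 °C, 3% O2). Values are pIC50 from full-curve regression.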

[2] = test system: P. falciparum stages IV–V gametocytes; test: Gametocytocidal ATP-depletion assay (gametocyte ATP bioluminescence); format: cell-based, Plasmodium falciparum
Summary of the method: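 Read-out is luciferase luminescence of parasite ATP (BacTiter-Glo), standing in for viability. Double-purified mature stage IV–V gametocytes, 12,500 per well, were exposed 48 h at 37 °C in low-O2 gas; screening concentration 2 μM.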

[3] = test system: HepG2 cells; test: HepG2 cytotoxicity assay; format: cell-based; settings: mean
Summary of the method: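 Cell viability is measured by CellTiter-Glo luminescence. Signal is developed at room temperature and read 10 min after adding the reagent, with plates and reagent first equilibrated for 30 min.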

[4] = test system: P. falciparum asexual blood stages; settings: TCAMS data; ref 1 (Gamo et al., 2010); read-out: Pf Asexual blood stages XC50; cited from earlier work

Row | Compound | IC50 [1] [nM] | Gametocytes mean ATP inhibition at 2µM (%) [2] [%] | HepG2 cells mean TOX50 [3] [µM] | IC50 [4] [nM]
1 | Cc1ccc(C(=O)Nc2ccc(Nc3ccnc4cc(-c5ccccn5)ccc34)cc2O)cc1.Cl [TCMDC-138205] | 540 | 46.13 | 1.27 | 110
2 | COc1ccc(N2CCN(CCCCNCc3ccc(NC(=O)c4cc(Cl)cc(Cl)c4)cc3)CC2)c(OC)c1 [TCMDC-138226] | 3110 | 17.06 | 4.42 | 250
3 | CN(C)CCNCc1ccc(-c2ccc3c(Nc4ccc(Cl)cc4F)ccnc3c2)o1 [TCMDC-138391] | 1710 | 2.24 | 0.89 | 210
4 | Fc1cc(Cl)ccc1Nc1ccnc2cc(-c3ccc(CN4CCOCC4)o3)ccc12 [TCMDC-138393] | 640 | 87.52 | 5.62 | 640
5 | CN(C)CCNCc1ccc(-c2ccc3c(Nc4ccc(Oc5ccccc5)cc4)ccnc3c2)o1 [TCMDC-138399] | 1560 | 14.30 | 5.69 | 280
6 | CN(C)CCN(C)Cc1cccc(-c2ccc3c(Nc4ccc(F)cc4Cl)ccnc3c2)c1 [TCMDC-138416] | 7020 | 39.96 | 6.10 | 110
7 | CN(C)CCN(C)Cc1ccc(-c2ccc3c(Nc4ccc(Oc5ccccn5)cc4)ccnc3c2)o1 [TCMDC-138426] | 2050 | 16.13 | 5.37 | 420
8 | COc1cc2nc(N3CCC(CCCC4CCNCC4)CC3)nc(NCc3ccccn3)c2cc1OC.O=C(O)C(F)(F)F [TCMDC-138494] | 6860 | 35.38 | 18.51 | 760
9 | CN1CCN(CCCNCc2cccc(Nc3nccc(Nc4ccc(Oc5ccccc5)cc4)n3)c2)CC1 [TCMDC-138616] | 980 | 13.07 | 4.68 | 760
10 | Cl.O=C(NCCCCN1CCC(c2ccc3c(c2O)CCCC3)CC1)c1ccc(NC(=O)c2ccc(Cl)cc2)cc1 [TCMDC-138645] | 1490 | -0.21 | 3.80 | 240
11 | C=CCC1OC(=O)c2cc(OC)cc(OC)c21 (stereo not drawn) [TCMDC-138677] | 360 | 95.50 | 2.29 | 340
12 | CCc1ccc(C2CCN(CCCCNC(=O)c3ccc(NC(=O)c4ccc(Cl)cc4)cc3)CC2)c(OCCO)c1 [TCMDC-138703] | 2250 | -4.56 | 5.37 | 1390
13 | COc1cc2nc(N3CCC(CNC(=O)c4ccc(-c5ccc(C(F)(F)F)cc5)cc4)CC3)nc(N)c2cc1OC [TCMDC-138716] | 850 | 21.96 | 4.92 | 130
14 | COc1cc2nc(N3CCC(CNC(=O)c4ccc(-c5ccc(Cl)cc5)cc4)CC3)nc(N)c2cc1OC [TCMDC-138718] | 890 | 12.29 | 4.22 | 150
15 | COc1cc2nc(N3CCC(CNC(=O)c4ccc(-c5ccc(-c6noc(C)n6)cc5)cc4)CC3)nc(N)c2cc1OC [TCMDC-138754] | 1050 | 90.89 | 4.90 | 140
16 | COc1cc2nc(N3CCC(CNCc4ccc(-c5ccc(C(F)(F)F)cc5)cc4)CC3)nc(N)c2cc1OC [TCMDC-138757] | 100 | 99.68 | 1.43 | 90
17 | O=C(NCCCCN1CCC(c2ccc3c(c2OCCN2CCCC2)CCCC3)CC1)c1ccc(-c2ccc(C(F)(F)F)cc2)cc1 [TCMDC-138768] | 1980 | -10.59 | 5.39 | 450
18 | O=C(NC1CCN(CCN2CCC(c3c[nH]c4ccccc34)CC2)CC1)c1ccc(-c2ccc(C(F)(F)F)cc2)cc1 [TCMDC-138845] | 1800 | -6.33 | 4.68 | 210

Row | Compound | IC50 [1] [nM] | Gametocytes mean ATP inhibition at 2µM (%) [2] [%] | HepG2 cells mean TOX50 [3] [µM] | IC50 [4] [nM]
19 | CC(C)Cn1cc(C2CCN(CCN3CCC(CNC(=O)c4ccc(-c5ccc(C#N)cc5)cc4)CC3)CC2)c2ccccc21 [TCMDC-138849] | 1030 | 8.40 | 4.79 | 790
20 | CC(C)Cn1cc(C2CCN(CCN3CCC(CNC(=O)c4ccc(-c5ccc(C(F)(F)F)cc5)cc4)CC3)CC2)c2ccccc21 [TCMDC-138852] | 880 | 30.37 | 4.80 | 750
21 | O=C(NCC1CCN(CCN2CCC(c3cn(CCO)c4ccccc34)CC2)CC1)c1ccc(-c2ccc(C(F)(F)F)cc2)cc1 [TCMDC-138856] | 1470 | 5.55 | 2.69 | 440
22 | COc1c(C2CCN(CCN3CCC(CNC(=O)c4ccc(-c5ccc(C#N)cc5)cc4)CC3)CC2)ccc2c1CCCC2 [TCMDC-138859] | 1460 | 3.05 | 3.43 | 460
23 | O=C(O)C(F)(F)F.O=S(=O)(c1ccccc1)n1ccc2cc(Nc3ncnc4cc(C#C[C@H]5CCCN5)sc34)ccc21 [TCMDC-138913] | 1170 | 75.13 | 5.50 | 1070
24 | CC1(C)CC(NCCCCCCCOc2ccc(OCc3ccccc3)cc2)CC(C)(C)N1.Cl [TCMDC-138958] | 1230 | 38.17 | 2.75 | 830
25 | Cl.Clc1ccc(OCCC2CCN(CCCCCCCN3CCC(CCOc4ccc(Cl)c(Cl)c4)CC3)CC2)cc1Cl [TCMDC-138967] | 520 | 95.79 | 1.64 | 620
26 | COc1ccc(NC(=O)c2ccc(OCCCCCCCOc3ccc(C(=O)Nc4ccc(OC)c(N5CCN(C)CC5)c4)cc3)cc2)cc1N1CCN(C)CC1.O=C(O)C(=O)O [TCMDC-139007] | 1410 | -8.09 | 4.43 | 600
27 | COc1ccc(NC(=O)c2cccc(Br)c2)cc1N1CCN(CCCCCCCN2CCN(c3cc(NC(=O)c4cccc(Br)c4)ccc3OC)CC2)CC1.Cl [TCMDC-139020] | 1060 | -4.19 | 6.03 | 180
28 | Oc1ccc2[nH]cc(C3CCN(CCCNCc4ccc(-c5ccccc5)cc4)CC3)c2c1 [TCMDC-139047] | 1440 | -20.32 | 5.62 | 730
29 | Cl.Nc1c2c(nc3ccc(NC(=O)CCCCCCc4ccccc4)cc13)CCCC2 [TCMDC-139056] | 2380 | -10.66 | 5.42 | 250
30 | COC(=O)c1ccc(-c2ccc(-c3cccnc3)cc2C)cc1 [TCMDC-139074] | 590 | 88.85 | 3.63 | 660
31 | c1ccc(C23N=C(Nc4nc5ccccc5[nH]4)NC2(c2ccccc2)NC(Nc2nc4ccccc4[nH]2)=N3)cc1 (stereo not drawn) [TCMDC-139082] | 140 | 65.26 | 58.90 | 280
32 | COc1cccc(C23N=C(Nc4nc5ccccc5[nH]4)NC2(c2cccc(OC)c2)NC(Nc2nc4ccccc4[nH]2)=N3)c1 (stereo not drawn) [TCMDC-139087] | 90 | 64.05 | 40.74 | 160
33 | Clc1cccc(C23N=C(Nc4nc5ccccc5[nH]4)NC2(c2ccccc2)NC(Nc2nc4ccccc4[nH]2)=N3)c1 (stereo not drawn) [TCMDC-139089] | 150 | 71.66 | 42.76 | 520
34 | c1ccc(-c2nc(Nc3nc4ccccc4[nH]3)[nH]c2-c2ccccc2)cc1 [TCMDC-139099] | 580 | 51.90 | 10.98 | 620
35 | Cc1cc2nc(N=C3NC4(c5ccccn5)NC(=Nc5nc6cc(C)c(C)cc6[nH]5)NC4(c4ccccn4)N3)[nH]c2cc1C.O=C(O)C(F)(F)F (stereo not drawn) [TCMDC-139105] | 5340 | 33.60 | 35.91 | 680
36 | C=C[C@H]1CN(CCCCCCC)CC[C@H]1CCNc1ccnc2ccc(OC)cc12 [TCMDC-139204] | 1800 | 31.13 | 2.24 | 60
